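Each compound was tested at five concentrations against cells in 96-well plates for 48 hours. GI50 is the concentration that inhibits growth by half.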 Calls of active or inactive are those of the source. Cut-off read from the data, not from the text of the source: active = GI50 up to about 1.1 µM and inactive = higher.
Tests used:
Assay in all cases: NCI-60 cell line screen, 48 h
MOLT-4 = tested on: MOLT-4
U-251 = tested on: U-251
SK-OV-3 = tested on: SK-OV-3
Hs-578T = tested on: Hs-578T
SN12C = tested on: SN12C
A549 = tested on: A549
SF-295 = tested on: SF-295
BT-549 = tested on: BT-549
SNB-19 = tested on: SNB-19
DU-145 = tested on: DU-145
COLO 205 = tested on: COLO 205
HCC 2998 = tested on: HCC 2998
ACHN = tested on: ACHN
T47D = tested on: T47D
UACC-62 = tested on: UACC-62
Malme-3M = tested on: Malme-3M
NCI/ADR-RES = tested on: NCI/ADR-RES
KM12 = tested on: KM12
MCF7 = tested on: MCF7
UACC-257 = tested on: UACC-257
HT-29 = tested on: HT-29
TK-10 = tested on: TK-10
OVCAR-8 = tested on: OVCAR-8
HCT-116 = tested on: HCT-116
HOP-62 = tested on: HOP-62
HOP-92 = tested on: HOP-92
786-0 = tested on: 786-0
CCRF-CEM = tested on: CCRF-CEM
HCT-15 = tested on: HCT-15
SR = tested on: SR
EKVX = tested on: EKVX
NCI-H522 = tested on: NCI-H522
OVCAR-4 = tested on: OVCAR-4
UO-31 = tested on: UO-31
OVCAR-5 = tested on: OVCAR-5
MDA-MB-435 = tested on: MDA-MB-435
NCI-H23 = tested on: NCI-H23
HL-60 = tested on: HL-60
NCI-H226 = tested on: NCI-H226
RXF 393 = tested on: RXF 393
IGROV-1 = tested on: IGROV-1
CAKI-1 = tested on: CAKI-1
SF-539 = tested on: SF-539
M14 = tested on: M14
SF-268 = tested on: SF-268
OVCAR-3 = tested on: OVCAR-3
SK-MEL-5 = tested on: SK-MEL-5
SNB-75 = tested on: SNB-75
MDA-MB-231 = tested on: MDA-MB-231
K562 = tested on: K562
MDA-N = tested on: MDA-N
RPMI-8226 = tested on: RPMI-8226
SK-MEL-2 = tested on: SK-MEL-2
SW-620 = tested on: SW-620
LOX IMVI = tested on: LOX IMVI
A498 = tested on: A498
PC-3 = tested on: PC-3
SK-MEL-28 = tested on: SK-MEL-28
NCI-H460 = tested on: NCI-H460

## COc1ccc(-c2cc3ccccc3oc2=O)cc1OC
MOLT-4
  GI50: > 100 µM (inactive)
U-251
  GI50: > 100 µM (inactive)
SK-OV-3
  GI50: 20.3 µM (inactive)
Hs-578T
  GI50: > 100 µM (inactive)
SN12C
  GI50: > 100 µM (inactive)
A549
  GI50: > 100 µM (inactive)
SF-295
  GI50: > 100 µM (inactive)
BT-549
  GI50: > 100 µM (inactive)
SNB-19
  GI50: 90.6 µM (inactive)
DU-145
  GI50: > 100 µM (inactive)
COLO 205
  GI50: > 100 µM (inactive)
HCC 2998
  GI50: > 10 µM (inactive)
ACHN
  GI50: > 100 µM (inactive)
T47D
  GI50: > 100 µM (inactive)
UACC-62
  GI50: > 100 µM (inactive)
Malme-3M
  GI50: > 100 µM (inactive)
NCI/ADR-RES
  GI50: > 100 µM (inactive)
KM12
  GI50: > 100 µM (inactive)
MCF7
  GI50: > 100 µM (inactive)
UACC-257
  GI50: > 100 µM (inactive)
HT-29
  GI50: > 100 µM (inactive)
TK-10
  GI50: > 100 µM (inactive)
OVCAR-8
  GI50: > 100 µM (inactive)
HCT-116
  GI50: > 100 µM (inactive)
HOP-62
  GI50: > 100 µM (inactive)
HOP-92
  GI50: > 100 µM (inactive)
786-0
  GI50: 70 µM (inactive)
CCRF-CEM
  GI50: > 100 µM (inactive)
HCT-15
  GI50: > 100 µM
SR
  GI50: > 100 µM (inactive)
EKVX
  GI50: > 100 µM (inactive)
NCI-H522
  GI50: > 100 µM (inactive)
OVCAR-4
  GI50: > 100 µM (inactive)
UO-31
  GI50: > 100 µM (inactive)
OVCAR-5
  GI50: > 100 µM (inactive)
MDA-MB-435
  GI50: > 100 µM (inactive)
NCI-H23
  GI50: > 100 µM (inactive)
HL-60
  GI50: > 100 µM (inactive)
NCI-H226
  GI50: > 100 µM (inactive)
RXF 393
  GI50: > 100 µM (inactive)
IGROV-1
  GI50: > 100 µM (inactive)
CAKI-1
  GI50: > 100 µM (inactive)
SF-539
  GI50: > 100 µM (inactive)
M14
  GI50: > 100 µM (inactive)
SF-268
  GI50: > 100 µM (inactive)
OVCAR-3
  GI50: > 100 µM (inactive)
SK-MEL-5
  GI50: 81.5 µM (inactive)
SNB-75
  GI50: 60.3 µM (inactive)
MDA-MB-231
  GI50: > 100 µM (inactive)
K562
  GI50: > 100 µM (inactive)
MDA-N
  GI50: > 100 µM (inactive)
RPMI-8226
  GI50: 44.6 µM (inactive)
SK-MEL-2
  GI50: > 100 µM (inactive)
SW-620
  GI50: > 100 µM (inactive)
LOX IMVI
  GI50: > 100 µM (inactive)
A498
  GI50: > 100 µM (inactive)

## Cc1[nH]c2c(C)ccc(C)c2c1CC(=O)O
MOLT-4
  GI50: 26.5 µM (inactive)
U-251
  GI50: 35.9 µM (inactive)
SK-OV-3
  GI50: > 100 µM (inactive)
Hs-578T
  GI50: 25.2 µM (inactive)
SN12C
  GI50: 34.3 µM (inactive)
A549
  GI50: 42.3 µM (inactive)
SF-295
  GI50: 50.1 µM (inactive)
BT-549
  GI50: 54.6 µM (inactive)
SNB-19
  GI50: 92 µM (inactive)
DU-145
  GI50: > 100 µM (inactive)
COLO 205
  GI50: 40 µM (inactive)
PC-3
  GI50: 22 µM (inactive)
HCC 2998
  GI50: 29.6 µM (inactive)
SK-MEL-28
  GI50: 61.8 µM (inactive)
ACHN
  GI50: 59.4 µM (inactive)
T47D
  GI50: 41.8 µM (inactive)
UACC-62
  GI50: 43.1 µM (inactive)
Malme-3M
  GI50: 37.7 µM (inactive)
NCI/ADR-RES
  GI50: 54.6 µM (inactive)
KM12
  GI50: 32.2 µM (inactive)
MCF7
  GI50: 36.6 µM (inactive)
UACC-257
  GI50: 30.5 µM (inactive)
HT-29
  GI50: 43.3 µM (inactive)
TK-10
  GI50: 57 µM (inactive)
NCI-H460
  GI50: 31 µM (inactive)
OVCAR-8
  GI50: 32.5 µM (inactive)
HCT-116
  GI50: 38.5 µM (inactive)
HOP-62
  GI50: 81.5 µM (inactive)
786-0
  GI50: 43.9 µM (inactive)
CCRF-CEM
  GI50: 20 µM (inactive)
HCT-15
  GI50: 53.5 µM
EKVX
  GI50: 39 µM (inactive)
NCI-H522
  GI50: 24.2 µM (inactive)
OVCAR-4
  GI50: 38.1 µM (inactive)
UO-31
  GI50: 37 µM (inactive)
OVCAR-5
  GI50: > 100 µM (inactive)
MDA-MB-435
  GI50: 42.3 µM (inactive)
NCI-H23
  GI50: 51.8 µM (inactive)
HL-60
  GI50: 5.43 µM (inactive)
NCI-H226
  GI50: 33.7 µM (inactive)
RXF 393
  GI50: > 100 µM (inactive)
IGROV-1
  GI50: 17.6 µM (inactive)
CAKI-1
  GI50: 43 µM (inactive)
SF-539
  GI50: 94.2 µM (inactive)
M14
  GI50: 41 µM (inactive)
SF-268
  GI50: 44.2 µM (inactive)
OVCAR-3
  GI50: 31.3 µM (inactive)
SK-MEL-5
  GI50: 48.9 µM (inactive)
MDA-MB-231
  GI50: 13 µM (inactive)
K562
  GI50: 34.4 µM (inactive)
MDA-N
  GI50: 31.5 µM (inactive)
RPMI-8226
  GI50: 25.7 µM (inactive)
SK-MEL-2
  GI50: 18.2 µM (inactive)
SW-620
  GI50: 42.9 µM (inactive)
LOX IMVI
  GI50: 36.5 µM (inactive)
A498
  GI50: 57 µM (inactive)

Source: ChEMBL document CHEMBL1201862, “PubChem BioAssay data set” (2004)
